Among the data in patent US10798941B2, “Microbiocidal oxadiazole derivatives” (SYNGENTA PARTICIPATIONS AG, priority 2016, dated 2020) are pest or weed control, inhibition of growth and melting point values, retold here.

Data set [1] has as its system Puccinia recondita f. Sp. Tritici. The experiment in a line: Puccinia recondita f. sp. tritici / wheat / leaf disc preventative (brown rust). The data set is classed as in vivo. The note with it: foliar, 168 h, 200 ppm in the applied formulation, wheat leaf segments cv. Kanzler, preventative, inoculated 1 day after application, assessed 7 to 9 days after application, vs untreated, read-out: disease control. In a few lines: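 Preventative leaf-segment test: spray application of diluted formulated compound on wheat cv. Kanzler, spore inoculation after 1 day. Percent control relative to untreated segments rated 7 to 9 days post-application, with incubation at 19° C, 75% relative humidity, 12 h photoperiod.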

Data set [2] shares this test system. The experiment in a line: Puccinia recondita f. sp. tritici / wheat / leaf disc curative (brown rust). The data set is classed as in vivo. The note with it: foliar, 144 h, 200 ppm in the applied formulation, wheat leaf segments cv. Kanzler, applied 1 day after inoculation, assessed 6 to 8 days after application, vs untreated, read-out: disease control. A digest of the protocol: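 Segments of wheat (cultivar Kanzler) sit on agar and are spore-inoculated first; after one day in darkness at 19° C and 75% RH the diluted formulated compound is sprayed on. A 12 h photoperiod follows at the same temperature and humidity before disease is scored against untreated controls.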

In the next data set the test system is Phakopsora pachyrhizi. The experiment in a line: Phakopsora pachyrhizi / soybean / leaf disc preventative (Asian soybean rust). In kind it is in vivo. The settings on record: foliar, 288 h, 200 ppm in the applied formulation, soybean leaf disks, inoculated one day after application, assessed 12 to 14 days after application, vs untreated, read-out: disease control. A digest of the protocol:
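Read-out is percent disease control relative to untreated check discs, assessed once untreated discs show adequate disease, 12 to 14 days after application. Compounds, tested at 200 ppm in the applied formulation, are sprayed onto soybean leaf discs one day before inoculation with a spore suspension.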

Data set [3] deals with Glomerella Lagenarium (Colletotrichum Lagenarium). The experiment in a line: Glomerella lagenarium (Colletotrichum lagenarium) liquid culture / cucumber / preventative (anthracnose). The settings on record: Colletotrichum orbiculare; 20 ppm in the applied formulation; liquid culture in PDB, 24° C., inhibition of growth measured photometrically 3 to 4 days after application, vs untreated; read-out: disease control. In kind it is cell-based. In a few lines: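 Conidia from cryogenic storage were mixed into potato dextrose broth. This was added to compound diluted from DMSO into 0.025% Tween20, tested at 20 ppm. Plates were incubated in the dark at 24 °C and 96% relative humidity, and growth was read photometrically after 2–7 days as % activity versus untreated check.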

With `CON(C)C(=O)c1cn(Cc2ccc(-c3noc(C(F)(F)F)n3)cc2)nn1` [Compound 1.275, N-methoxy-N-methyl-1-[[4-[5-(trifluoromethyl)-1,2,4-oxadiazol-3-yl]phenyl]methyl]triazole-4-carboxamide], the melting point is 135 to 137 °C. Besides, the pest or weed control at 200 ppm in data set [1] is ≥ 80%. In addition, the pest or weed control at 200 ppm in data set [2] was ≥ 80%. Moreover, in the data set on Phakopsora pachyrhizi, the pest or weed control at 200 ppm was ≥ 80%. The inhibition of growth at 20 ppm in data set [3] is ≥ 80%.
The compound `CONC(=O)c1cn(Cc2ccc(-c3noc(C(F)(F)F)n3)cc2)nn1` [Compound 1.277, N-methoxy-1-[[4-[5-(trifluoromethyl)-1,2,4-oxadiazol-3-yl]phenyl]methyl]triazole-4-carboxamide] registered a melting point of 198 to 200 °C. Further, in data set [1], the pest or weed control at 200 ppm is ≥ 80%. The pest or weed control at 200 ppm in data set [2] was ≥ 80%. In the data set with Phakopsora pachyrhizi, the pest or weed control at 200 ppm is ≥ 80%. For the same compound, in data set [3], the inhibition of growth at 20 ppm is ≥ 80%.
Take `COC(=O)c1cnnn1Cc1ccc(-c2noc(C(F)(F)F)n2)cc1` [Compound 1.279, methyl 3-[[4-[5-(trifluoromethyl)-1,2,4-oxadiazol-3-yl]phenyl]methyl]triazole-4-carboxylate]: the melting point was 103 to 107 °C. Besides, in data set [1], the pest or weed control at 200 ppm was ≥ 80%. Moreover, the pest or weed control at 200 ppm in data set [2] is ≥ 80%. Besides, the pest or weed control at 200 ppm in the data set on Phakopsora pachyrhizi was ≥ 80%. The inhibition of growth at 20 ppm in data set [3] is ≥ 80%.
With `CN(C)C(=O)c1cn(Cc2ccc(-c3noc(C(F)(F)F)n3)cc2)nn1` [Compound 1.280, N,N-dimethyl-1-[[4-[5-(trifluoromethyl)-1,2,4-oxadiazol-3-yl]phenyl]methyl]triazole-4-carboxamide], the melting point was in the range of 168 to 170 °C. The pest or weed control at 200 ppm in data set [1] is ≥ 80%. Also, the pest or weed control at 200 ppm in data set [2] was ≥ 80%. For the same compound, in the data set on Phakopsora pachyrhizi, the pest or weed control at 200 ppm is ≥ 80%. Besides, in data set [3], the inhibition of growth at 20 ppm is ≥ 80%.
With `O=C(Nc1ccncc1)c1cn(Cc2ccc(-c3noc(C(F)(F)F)n3)cc2)nn1` [Compound 1.283, N-(4-pyridyl)-1-[[4-[5-(trifluoromethyl)-1,2,4-oxadiazol-3-yl]phenyl]methyl]triazole-4-carboxamide], the melting point is 204 to 206 °C. The pest or weed control at 200 ppm in data set [1] was ≥ 80%. In addition, the pest or weed control at 200 ppm in data set [2] is ≥ 80%. In addition, in the data set on Phakopsora pachyrhizi, the pest or weed control at 200 ppm was ≥ 80%. In data set [3], the inhibition of growth at 20 ppm is ≥ 80%.
In turn, `C#CCON=Cc1cnn(Cc2ccc(-c3noc(C(F)(F)F)n3)cc2)c1` [Compound 1.290, N-prop-2-ynoxy-1-[1-[[4-[5-(trifluoromethyl)-1,2,4-oxadiazol-3-yl]phenyl]methyl]pyrazol-4-yl]methanimine] displayed a melting point of 57 to 63 °C. In data set [1], the pest or weed control at 200 ppm is ≥ 80%. Further, the pest or weed control at 200 ppm in data set [2] was ≥ 80%. The pest or weed control at 200 ppm with Phakopsora pachyrhizi is ≥ 80%. Further, in data set [3], the inhibition of growth at 20 ppm is ≥ 80%.
`CS(=O)(=O)N1CCN(Cc2ccc(-c3noc(C(F)(F)F)n3)cc2)CC1` [Compound 1.305, 3-[4-[(4-methylsulfonyl-piperazin-1-yl)methyl]phenyl]-5-(trifluoromethyl)-1,2,4-oxadiazole]: the melting point was 111.1 to 114.9 °C. Also, the pest or weed control at 200 ppm in data set [1] was ≥ 80%. Moreover, the pest or weed control at 200 ppm in data set [2] is ≥ 80%. Besides, the pest or weed control at 200 ppm with Phakopsora pachyrhizi was ≥ 80%. The inhibition of growth at 20 ppm in data set [3] is ≥ 80%.

By melting point is commonly meant the temperature, or range, at which the solid turns liquid.
